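Method: 48-hour compound exposure of cells in 96-well plates, five concentrations, linear interpolation of endpoints. The concentration for full growth arrest is given as TGI.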
Tests used:
Assay in all cases: NCI tumour cell line growth inhibition, 48 h
[1] = test system: SR leukemia
[2] = test system: CAKI-1 renal
[3] = test system: SW-620 colon
[4] = test system: HT29 colon
[5] = test system: A498 renal
[6] = test system: EKVX NSCLC
[7] = test system: U251 CNS
[8] = test system: CCRF-CEM leukemia
[9] = test system: SK-MEL-5 melanoma
[10] = test system: UACC-62 melanoma
[11] = test system: MDA-N
[12] = test system: OVCAR-3 ovarian
[13] = test system: HCT-15 colon
[14] = test system: HS 578T breast
[15] = test system: IGROV1 ovarian
[16] = test system: HL-60(TB) leukemia
[17] = test system: SF-539 CNS
[18] = test system: MOLT-4 leukemia
[19] = test system: OVCAR-8 ovarian
[20] = test system: NCI-H23 lung
[21] = test system: NCI-H460 lung
[22] = test system: K-562 leukemia
[23] = test system: SF-268 CNS
[24] = test system: DU-145 prostate
[25] = test system: HCT-116 colon
[26] = test system: NCI/ADR-RES ovarian
[27] = test system: SN12C renal
[28] = test system: SNB-19 CNS
[29] = test system: TK-10 renal
[30] = test system: MCF7 breast
[31] = test system: LOX IMVI melanoma
[32] = test system: BT-549 breast
[33] = test system: KM12 colon
[34] = test system: ACHN renal
[35] = test system: 786-0 renal
[36] = test system: OVCAR-5 ovarian
[37] = test system: M14 melanoma
[38] = test system: HOP-62 NSCLC
[39] = test system: SNB-75 CNS
[40] = test system: PC-3 prostate
[41] = test system: RXF 393 renal
[42] = test system: UO-31 renal
[43] = test system: MDA-MB-231 breast
[44] = test system: MALME-3M melanoma
[45] = test system: UACC-257 melanoma
[46] = test system: MDA-MB-435
[47] = test system: SK-MEL-28 melanoma
[48] = test system: COLO 205 colon
[49] = test system: SK-OV-3 ovarian
[50] = test system: SF-295 CNS
[51] = test system: RPMI-8226 leukemia
[52] = test system: NCI-H226 lung
[53] = test system: SK-MEL-2 melanoma
[54] = test system: HOP-92 NSCLC
[55] = test system: T-47D breast
[56] = test system: OVCAR-4 ovarian
[57] = test system: HCC-2998 colon
[58] = test system: NCI-H522 lung
[59] = test system: A549 NSCLC

N#Cc1nc(C2CCC(=O)O2)oc1N (stereo not given)
TGI [1]: > 100 µM | TGI [2]: > 100 µM | TGI [3]: > 100 µM | TGI [4]: > 100 µM | TGI [5]: > 100 µM | TGI [6]: > 100 µM | TGI [7]: > 100 µM | TGI [8]: > 100 µM | TGI [9]: > 100 µM | TGI [10]: > 100 µM | TGI [11]: > 100 µM | TGI [12]: > 100 µM | TGI [13]: > 100 µM | TGI [14]: > 100 µM | TGI [15]: > 100 µM | TGI [16]: > 100 µM | TGI [17]: > 100 µM | TGI [18]: > 100 µM | TGI [19]: > 100 µM | TGI [20]: > 100 µM | TGI [21]: > 100 µM | TGI [22]: > 100 µM | TGI [23]: > 100 µM | TGI [24]: > 100 µM | TGI [25]: > 100 µM | TGI [26]: > 100 µM | TGI [27]: > 100 µM | TGI [28]: > 100 µM | TGI [29]: > 100 µM | TGI [30]: > 100 µM | TGI [31]: > 100 µM | TGI [32]: > 100 µM | TGI [33]: > 100 µM | TGI [34]: > 100 µM | TGI [35]: > 100 µM | TGI [36]: > 100 µM | TGI [37]: > 100 µM | TGI [38]: > 100 µM | TGI [39]: > 100 µM | TGI [40]: > 100 µM | TGI [41]: > 100 µM | TGI [42]: > 100 µM | TGI [43]: > 100 µM | TGI [44]: > 100 µM | TGI [45]: > 100 µM | TGI [46]: > 100 µM | TGI [47]: > 100 µM | TGI [48]: > 100 µM | TGI [49]: > 100 µM | TGI [50]: > 100 µM | TGI [51]: > 100 µM | TGI [52]: > 100 µM | TGI [53]: > 100 µM

Nc1c(C(=O)Nc2ccc([As](=O)(O)O)cc2)cnc2nnnn12
TGI [1]: > 100 µM | TGI [2]: > 100 µM | TGI [3]: > 100 µM | TGI [4]: > 100 µM | TGI [5]: > 100 µM | TGI [54]: > 100 µM | TGI [6]: > 100 µM | TGI [7]: > 100 µM | TGI [8]: > 100 µM | TGI [9]: > 100 µM | TGI [10]: > 100 µM | TGI [11]: > 100 µM | TGI [12]: > 100 µM | TGI [13]: > 100 µM | TGI [15]: > 100 µM | TGI [16]: > 100 µM | TGI [17]: > 100 µM | TGI [18]: > 100 µM | TGI [19]: > 100 µM | TGI [20]: > 100 µM | TGI [21]: > 100 µM | TGI [55]: > 100 µM | TGI [22]: > 100 µM | TGI [23]: > 100 µM | TGI [24]: > 100 µM | TGI [25]: > 100 µM | TGI [26]: > 100 µM | TGI [27]: > 100 µM | TGI [28]: > 100 µM | TGI [29]: > 100 µM | TGI [30]: > 100 µM | TGI [56]: > 100 µM | TGI [57]: > 100 µM | TGI [31]: > 100 µM | TGI [32]: > 100 µM | TGI [58]: > 100 µM | TGI [33]: > 100 µM | TGI [34]: > 100 µM | TGI [59]: > 100 µM | TGI [35]: > 100 µM | TGI [36]: > 100 µM | TGI [37]: > 100 µM | TGI [38]: > 100 µM | TGI [39]: > 100 µM | TGI [40]: > 100 µM | TGI [41]: > 100 µM | TGI [42]: > 100 µM | TGI [43]: > 100 µM | TGI [44]: > 100 µM | TGI [45]: > 100 µM | TGI [46]: > 100 µM | TGI [47]: > 100 µM | TGI [48]: > 100 µM | TGI [49]: > 100 µM | TGI [50]: > 100 µM | TGI [51]: > 100 µM | TGI [52]: > 100 µM | TGI [53]: > 100 µM

O=C1NC(=S)NC(=O)C1C(c1ccc(Cl)cc1)C1C(=O)NC(=S)NC1=O
TGI [2]: > 100 µM | TGI [3]: > 100 µM | TGI [4]: > 100 µM | TGI [5]: > 100 µM | TGI [54]: > 100 µM | TGI [6]: > 100 µM | TGI [7]: > 100 µM | TGI [8]: > 100 µM | TGI [9]: > 100 µM | TGI [10]: > 100 µM | TGI [11]: > 100 µM | TGI [12]: > 100 µM | TGI [13]: > 100 µM | TGI [15]: > 100 µM | TGI [16]: > 100 µM | TGI [18]: > 100 µM | TGI [19]: > 100 µM | TGI [20]: > 100 µM | TGI [21]: > 100 µM | TGI [55]: > 100 µM | TGI [22]: > 100 µM | TGI [24]: > 100 µM | TGI [25]: > 100 µM | TGI [26]: > 100 µM | TGI [27]: > 100 µM | TGI [28]: > 100 µM | TGI [29]: > 100 µM | TGI [30]: > 100 µM | TGI [56]: > 100 µM | TGI [31]: > 100 µM | TGI [32]: > 100 µM | TGI [58]: > 100 µM | TGI [33]: > 100 µM | TGI [34]: > 100 µM | TGI [59]: > 100 µM | TGI [35]: > 100 µM | TGI [36]: > 100 µM | TGI [37]: > 100 µM | TGI [38]: > 100 µM | TGI [40]: > 100 µM | TGI [41]: > 100 µM | TGI [42]: > 100 µM | TGI [43]: > 100 µM | TGI [44]: > 100 µM | TGI [45]: > 100 µM | TGI [46]: > 100 µM | TGI [47]: > 100 µM | TGI [48]: > 100 µM | TGI [50]: > 100 µM | TGI [51]: > 100 µM | TGI [52]: > 100 µM | TGI [53]: > 100 µM

CC(=O)N(C)c1ccc(Nc2ccnc3ccc4nn(C)nc4c23)cc1
TGI [1]: 77.1 µM | TGI [2]: 30.5 µM | TGI [3]: > 100 µM | TGI [4]: > 100 µM | TGI [6]: 76.1 µM | TGI [7]: > 100 µM | TGI [8]: 42 µM | TGI [9]: 37.6 µM | TGI [10]: 37 µM | TGI [11]: > 100 µM | TGI [12]: 50 µM | TGI [13]: 64.5 µM | TGI [14]: 53.2 µM | TGI [16]: 38.8 µM | TGI [17]: 46.4 µM | TGI [18]: 58 µM | TGI [19]: > 100 µM | TGI [20]: 82.1 µM | TGI [55]: 76.1 µM | TGI [23]: > 100 µM | TGI [24]: 92.2 µM | TGI [25]: 53.1 µM | TGI [26]: > 100 µM | TGI [27]: > 100 µM | TGI [28]: > 100 µM | TGI [29]: 70.2 µM | TGI [30]: 46.6 µM | TGI [56]: > 100 µM | TGI [31]: 30.6 µM | TGI [32]: 69.4 µM | TGI [58]: 41.2 µM | TGI [33]: 76.2 µM | TGI [34]: 30.2 µM | TGI [59]: 78 µM | TGI [35]: > 100 µM | TGI [36]: 94.1 µM | TGI [37]: > 100 µM | TGI [38]: 84.3 µM | TGI [39]: > 100 µM | TGI [40]: > 100 µM | TGI [41]: 48.1 µM | TGI [42]: 29.2 µM | TGI [44]: 39.6 µM | TGI [45]: 58.3 µM | TGI [46]: > 100 µM | TGI [47]: 73.1 µM | TGI [48]: 45.2 µM | TGI [49]: 47.6 µM | TGI [50]: 59 µM | TGI [51]: 46.9 µM | TGI [52]: 34.3 µM | TGI [53]: 45.7 µM
